According to patent US11421025B2, “Treatment of IL-17A diseases” (OSAKA UNIVERSITY, priority 2013, dated 2022):
Ends that are not written are not given here.

What was measured:
Format in all cases: in vivo
[1] = test system: DBA/1 mouse, arthritis caused by Type II collagen; test: Type II collagen arthritis model mouse, human IL-17A peptide vaccines; details: Experiment 8, KLH conjugated peptide vaccines (FIG. 22B)
Experimental: A vaccine containing a peptide consisting of human IL-17A1 epitope, human IL-17A2 epitope or human IL-17A4 epitope was administered to femoral muscle of each of the following 6-week-old male mice (KLH conjugated) 3 times at 2-week intervals (120 μg/60 μl×1 site/administration). Type II collagen and CFA (complete Freund's adjuvant) were administered at 28 days from the first vaccine administration, and Type II collagen and IFA (incomplete Freund's adjuvant) were administered at 42 days from the first vaccine administration, to induce arthritis. Thereafter, the level of arthritis was observed 3 times per week and scored.
H17 (human IL-17A1 epitope) group: 3 mice
AF4 (human IL-17A4 epitope) group: 3 mice
AF5 (human IL-17A2 epitope) group: 3 mice

[2] = test system: human IL-17A epitope (BSA conjugate); test: Antibody titer by ELISA after human IL-17A epitope vaccines in BALB/c mouse; details: 6 weeks from the first administration, 3 times at 2-week intervals (FIG. 18, 20, 21)
Experimental: Production of plate: Mouse IL-17A1 epitope+BSA conjugate and mouse IL-17A2 epitope+BSA conjugate were dispensed to a 96 well plate at a concentration of 10 μg/ml, and stood at 4° C. overnight. Recombinant mouse IL-17A was dispensed to a 96 well plate at a concentration of 0.25 μg/ml and stood at 4° C. overnight.
The aforementioned plate was washed once with PBS (200 μl), and blocked with 5% skim milk in PBS for 2 hr. The primary antibody (mouse antiserum) was serially diluted with 5% skim milk in PBS, applied by 50 μl to a 96 well plate, and incubated at 4° C. overnight.
The aforementioned plate was washed 7 times with PBS-T (0.05% Tween) (200 μl), the secondary antibody (anti-mouse IgG Ab-HRP-labeled) was diluted 1/1000 (5% skim milk), added by 50 μl, and incubated at ambient temperature for 3 hr. The plate was washed 3 times with PBS-T (0.05% Tween) (200 μl), TMB solution (50 μl) was added, shaded and incubated at ambient temperature for 30 min. 0.5N H2SO4 (50 μl) was added to discontinue the reaction and absorbance was measured at 450 nm.
(§1) A vaccine containing a peptide consisting of the following human IL-17A1 epitope (KLH conjugated) corresponding to mouse IL-17A1 epitope (RPSDYLNR (SEQ ID NO: 5)) was produced, and intradermally administered to BALB/c mouse 3 times at 2-week intervals. The serum antibody titer was measured at 6 weeks from the first administration according to the method described in Example 1.
In addition, a vaccine containing a peptide consisting of two kinds of epitopes (human IL-17A2 epitope, human IL-17A3 epitope) of the following human IL-17A (KLH conjugated) was produced, and intradermally administered to BALB/c mouse 3 times at 2-week intervals. The serum antibody titer was measured at 6 weeks from the first administration according to the method described in Example 1.
Furthermore, a vaccine containing a peptide consisting of the following human IL-17A4, which is a partial sequence of human IL-17A1 epitope (KLH conjugated), was produced. […]

[3] = molecular target: T1, mouse IL-17A1 epitope (BSA conjugate) (Mus musculus, UniProt Q62386); test: ELISA intersection reactivity of antiserum with mouse IL-17A1 epitope; details: serum of BALB/c mouse immunized with human epitope vaccine (FIG. 19A)
T1 construct: BSA-IL-17A1 (RPSDYLNR) conjugate (No5 BSA conjugate)
Experimental: The primary antibody (mouse antiserum) was diluted 10-fold, and then serially diluted by 5-fold and used. […]
as §1

| Substance | clinical score of arthritis [1] | serum antibody titer [2] | intersection reactivity of serum with mouse IL-17A1 epitope [3] |
| --- | --- | --- | --- |
| human IL-17A1 epitope: vaccine containing a peptide consisting of human IL-17A1 epitope RSSDYYNR (SEQ ID NO: 1), KLH conjugated (also: KLH conjugated; listed as Homo sapiens) | suppressive effect on the onset and progression of arthritis | increased | showed intersection reactivity |
| human IL-17A2 epitope: vaccine containing a peptide consisting of human IL-17A2 epitope ADGNVDYHMNSVPIQQE (SEQ ID NO: 8), KLH conjugated (also: KLH conjugated; listed as Homo sapiens) | suppressive effect on the onset and progression of arthritis | increased |  |
| human IL-17A4 epitope: vaccine containing a peptide consisting of human IL-17A4 epitope SDYYN (SEQ ID NO: 11), KLH conjugated (also: KLH conjugated; listed as Homo sapiens) | suppressive effect on the onset and progression of arthritis | increased |  |
